# Test results published in ChEMBL document CHEMBL4184122, “Chebulinic acid attenuates glutamate-induced HT22 cell death by inhibiting oxidative stress, calcium influx and MAPKs phosphorylation” (2018).
# Calls of active or inactive are those of the source. The calls are words filed in the database; no cut-off is given here.
# System: HT-22
# Assay: Neuroprotective activity against glutamate induced cell death in mouse HT22 cells assessed as increase in cell viability at 1 to 5 uM after 24 hrs by MTT assay
# Assay type: functional, cell-based
smiles,measurement,value
CC(=O)N[C@@H](CS)C(=O)O,Activity,Active
